Key:
mouse TLR8 (mTLR8) = biological target: T1, mouse TLR8 (mTLR8) (Mus musculus, UniProt P58682); test: HEK mTLR8 reporter cells NF-κB/SEAP; type: cell-based; conditions: ligands at indicated concentrations + 1 μM ODN, 24 h
T1 construct: host or cells: HEK-Blue-mTLR8 (HEK293)
T1 sequence (P58682 24-1032): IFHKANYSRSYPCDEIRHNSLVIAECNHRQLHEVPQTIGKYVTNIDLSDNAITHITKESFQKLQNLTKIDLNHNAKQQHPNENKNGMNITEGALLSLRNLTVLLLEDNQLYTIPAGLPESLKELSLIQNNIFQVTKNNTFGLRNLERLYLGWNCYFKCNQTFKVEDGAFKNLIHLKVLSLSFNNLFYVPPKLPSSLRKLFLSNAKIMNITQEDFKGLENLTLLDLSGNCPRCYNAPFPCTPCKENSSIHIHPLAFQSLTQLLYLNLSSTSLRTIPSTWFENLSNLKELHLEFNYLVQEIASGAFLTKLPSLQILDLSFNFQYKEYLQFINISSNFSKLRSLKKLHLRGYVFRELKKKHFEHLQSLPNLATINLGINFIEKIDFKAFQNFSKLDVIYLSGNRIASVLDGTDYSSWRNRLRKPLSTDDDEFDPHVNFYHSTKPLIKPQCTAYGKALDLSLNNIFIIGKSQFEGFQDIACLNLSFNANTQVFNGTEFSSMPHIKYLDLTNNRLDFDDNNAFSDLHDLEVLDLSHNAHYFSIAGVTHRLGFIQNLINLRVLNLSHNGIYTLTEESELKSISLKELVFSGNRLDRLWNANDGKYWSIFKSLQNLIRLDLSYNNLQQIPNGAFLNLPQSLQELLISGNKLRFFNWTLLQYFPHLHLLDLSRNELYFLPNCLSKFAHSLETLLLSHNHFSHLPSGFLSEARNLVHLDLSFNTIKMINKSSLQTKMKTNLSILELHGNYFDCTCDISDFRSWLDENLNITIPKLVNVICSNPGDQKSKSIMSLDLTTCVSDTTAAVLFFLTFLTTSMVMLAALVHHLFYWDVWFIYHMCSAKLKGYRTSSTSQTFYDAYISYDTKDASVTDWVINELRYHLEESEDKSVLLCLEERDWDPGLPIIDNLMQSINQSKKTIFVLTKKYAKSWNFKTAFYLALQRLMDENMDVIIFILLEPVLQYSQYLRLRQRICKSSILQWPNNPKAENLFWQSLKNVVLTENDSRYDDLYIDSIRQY
Description: (§1) HEK-Blue™-mTLR7, mTLR8, hTLR7, hTLR8, and RAW-Blue™ cells were purchased from InvivoGen and were used to evaluate bioactivities of lipo ODNs and TLR 7/8 ligands in vitro. All these cell lines were cultured with DMEM supplemented with 10% FBS, 1% P/S and 100 μg/mL Normocin at 37° C. with 5% CO2. […] After incubating for 24 h, SEAP levels were quantified by developing supernatants with QuantiBlue™ substrate for 1 h and reading absorption at 620 nm, following manufacturer's instructions.
Raw Blue cells which respond to both murine TLR-7 and TLR-8 are also included to assess the overall modulatory effect. half-maximal effective concentration (EC50) and potency of several classic TLR7/8 ligands were evaluated in murine TLR7 and TLR8 reporter cells.

[1] = tested on: TLR7-mediated NF-κB activation in Raw-Blue reporter cells; test: Raw-Blue NF-κB/SEAP reporter stimulation with TLR7 ligands; type: cell-based, murine
Description: as §1
Following subcutaneous injection, lipid-modified oligonucleotides efficiently accumulated in the draining lymph nodes by binding and trafficking with endogenous albumin protein (Liu et al., Nature 507, 519-522, 2014; Yu et al., Pharmaceutical Res. 35: 56, 2018). Inspired by that prior work, the current study was aimed to take advantage of lipid functionalization in other oligonucleotide-based TLR inhibitors to further expand the pool of lipo suppressive ODNs. The therapeutic efficacy of lipid-modified IRS 954 in suppressing TLR7-mediated immune activation and alleviating the severity of SLE was investigated. Imiquimod (IMQ; FIG. 1A) was first used to stimulate TLR7-mediated immune activation in Raw-Blue reporter cells. For the initial experiments, Raw Blue cells-a murine RAW 264.7 macrophage cell line which expresses secreted embryonic alkaline phosphatase (SEAP) under the control of an NF-κB and AP-1, were used. Raw Blue cells express many toll-like receptors, including TLR-7, TLR-8, and TLR-9. The immunosuppressive capability of unmodified or lipo IRS 954 was determined by quantifying the level of TLR7-induced NF-κB activation.

Substance: 5′-TTTTTTTTTTTTTTTTTTTT-3′ [T20]
- mTLR8 stimulation by IMQ, CL075, R848 in the presence of the ODN (mouse TLR8 (mTLR8)): increased the potency of TLR-8 stimulation
- lowering of IMQ-induced NF-κB activation ([1]; 2 μM IMQ + 1 μM ODN, 24 h): 2 folds
- IMQ-elicited activation with high-dose ODN ([1]; 2 μM IMQ + 5 μM T20, 24 h): significantly enhanced inhibition in IMQ-elicited activation
- overall NF-κB stimulation by IMQ, CL075, R848 in the presence of the ODN ([1]; ligands at indicated concentrations + 1 μM ODN, 24 h): suppressive effect on all the TLR ligands tested
